In patent US12447149B2, “Formulations of vimseltinib” (Deciphera Pharmaceuticals, LLC, priority 2023, dated 2025):

What was measured:
Format in all cases: physicochemical
[1] = Particle size distribution (PSD) of crystalline dihydrate form and seeds, DMAC-water crystallization; settings: for particle size d10 of seeds / particle size d50 of seeds / particle size d90 of seeds: seeds used in DMAC-water crystallization
[2] = Particle size analysis by laser diffraction (Malvern Mastersizer 3000, wet dispersion); settings: volume distribution, listed as 2
Protocol: Particle size analysis of dihydrate vimseltinib drug substance samples was determined by laser diffraction using a Malvern Mastersizer 3000 instrument in a wet dispersion mode.
Prior to analysis, dihydrate drug substance samples were rotated and inverted in the sample container at least 10 times to ensure homogeneity. Between 20 and 25 mg of sample was weighed into a Malvern Glass tube. 20 mL of the Dispersant Solution (0.1% Span 85 in Isoparaffin G) was added and vortexed until a homogeneous suspension was obtained (˜30 s). The sample was then placed in a Vibra-Cell ultrasonic processor. The amplitude was set to the target of 30% (4 Watts) using an external probe (Vibra-Cell) during 90 sec.
After background measurement, the sample dispersion was slowly added to the dispersion unit of the instrument to achieve an obscuration level target of 5%. The sample was stirred at 3250 rpm for at least 1 minute to ensure dispersion and stabilization of the sample. After stabilization, the measurement was started and performed using a Malvern Mastersizer 3000 according to the method conditions provided in Table 17.

[3] = Static storage stability of crystalline dihydrate and anhydrous forms (XRPD, DSC, KF weekly for four weeks)
Protocol: The stability of crystalline dihydrate and anhydrous forms of the compound represented by Formula (I) at varying relative humidity (RH) and temperature was investigated.
For example, the stability of crystalline dihydrate and anhydrous forms of the compound represented by Formula (I), as prepared according to Example 1 and Example 2, respectively, was studied under other conditions by placing aliquots of each form in static storage at conditions of 40° C./75% RH, 25° C./97% RH, 40° C./0% RH and 25° C./0% RH and analyzing the aliquots once weekly for four weeks using XRPD, DSC, and KF.

[4] = jet-milled seed batch, crystallization 1 at 60° C. with 7% seeds, crystallization 2 at 64° C. with 5% seeds
[5] = listed as seeds of a smaller size
[6] = milled seeds of crystalline dihydrate form used in DMAC-water crystallization, listed as 2
[7] = storage 25° C./0% RH, Week 4, listed as crystalline dihydrate form (having average crystal sizes of about 1 mm)
[8] = storage 40° C./0% RH, Week 4, listed as crystalline dihydrate form (having average crystal sizes of about 1 mm)

Cc1nc(-c2cnc(NC(C)C)n(C)c2=O)ccc1Oc1ccnc(-c2cnn(C)c2)c1.O.O [Seed batch]
Particle Size d10 [1, 4]: 1.4 microns | Particle Size d50 [1, 4]: 2.7 microns | Particle Size d90 [1, 4]: 5.0 microns | particle size d10 of seeds [1, 5]: about 1 μm | particle size d50 of seeds [1, 5]: about 3 μm | particle size d90 of seeds [1, 5]: about 5 μm

Cc1nc(-c2cnc(NC(C)C)n(C)c2=O)ccc1Oc1ccnc(-c2cnn(C)c2)c1.O.O [Lot 2]
Particle Size d10 [1, 6]: 2 microns | Particle Size d50 [1, 6]: 6 microns | Particle Size d90 [1, 6]: 11 microns | D(10) [2]: 6 μm | D(50) [2]: 18 μm | D(90) [2]: 37 μm

Cc1nc(-c2cnc(NC(C)C)n(C)c2=O)ccc1Oc1ccnc(-c2cnn(C)c2)c1.O.O [Dihydrate form of the compound represented by Formula (I) (h] [listing 1 of 2 here]
KF (%) ([3]; storage 25° C./0% RH, Week 1): 7.7% | XRPD ([3]; storage 25° C./0% RH, Week 1): Dihydrate | KF (%) ([3]; storage 25° C./0% RH, Week 2): 7.6% | XRPD ([3]; storage 25° C./0% RH, Week 2): Dihydrate | KF (%) ([3]; storage 25° C./0% RH, Week 3): 7.2% | XRPD ([3]; storage 25° C./0% RH, Week 3): Dihydrate | KF (%) ([3]; storage 25° C./0% RH, Week 4): 5.8% | KF (%) [3, 7]: 5.8% | XRPD [3, 7]: partially converted to the crystalline anhydrous form | KF (%) ([3]; storage 25° C./97% RH, Week 1): 7.7% | XRPD ([3]; storage 25° C./97% RH, Week 1): Dihydrate | KF (%) ([3]; storage 25° C./97% RH, Week 2): 7.7% | XRPD ([3]; storage 25° C./97% RH, Week 2): Dihydrate | KF (%) ([3]; storage 25° C./97% RH, Week 3): 7.4% | XRPD ([3]; storage 25° C./97% RH, Week 3): Dihydrate | KF (%) ([3]; storage 25° C./97% RH, Week 4): 7.7% | XRPD ([3]; storage 25° C./97% RH, Week 4): Dihydrate | XRPD ([3]; storage 25° C./97% RH, Week 4, listed as crystalline dihydrate form (having average crystal sizes of about 1 mm)): remained stable and unchanged | KF (%) ([3]; storage 40° C./0% RH, Week 1): 0.8% | KF (%) ([3]; storage 40° C./0% RH, Week 2): 0.3% | KF (%) ([3]; storage 40° C./0% RH, Week 3): 0.1% | XRPD ([3]; storage 40° C./0% RH, Week 3): Anhydrous | KF (%) ([3]; storage 40° C./0% RH, Week 4): 0.2% | KF (%) [3, 8]: 0.2% | XRPD [3, 8]: partially converted to the crystalline anhydrous form | KF (%) ([3]; storage 40° C./75% RH, Week 1): 7.7% | XRPD ([3]; storage 40° C./75% RH, Week 1): Dihydrate | KF (%) ([3]; storage 40° C./75% RH, Week 2): 7.6% | XRPD ([3]; storage 40° C./75% RH, Week 2): Dihydrate | KF (%) ([3]; storage 40° C./75% RH, Week 3): 7.7% | XRPD ([3]; storage 40° C./75% RH, Week 3): Dihydrate | KF (%) ([3]; storage 40° C./75% RH, Week 4): 7.7% | XRPD ([3]; storage 40° C./75% RH, Week 4): Dihydrate | XRPD ([3]; storage 40° C./75% RH, Week 4, listed as crystalline dihydrate form (having average crystal sizes of about 1 mm)): remained stable and unchanged

Cc1nc(-c2cnc(NC(C)C)n(C)c2=O)ccc1Oc1ccnc(-c2cnn(C)c2)c1.O.O [Dihydrate form of the compound represented by Formula (I) (h] [listing 2 of 2 here]
KF (%) ([3]; storage 25° C./0% RH, Week 1): 7.5% | KF (%) ([3]; storage 25° C./0% RH, Week 2): 7.7% | KF (%) ([3]; storage 25° C./0% RH, Week 3): 8.1% | KF (%) ([3]; storage 25° C./0% RH, Week 4): 7.9% | XRPD ([3]; storage 25° C./0% RH, Week 4): Dihydrate | KF (%) ([3]; storage 25° C./97% RH, Week 1): 7.6% | KF (%) ([3]; storage 25° C./97% RH, Week 2): 7.5% | KF (%) ([3]; storage 25° C./97% RH, Week 3): 7.9% | KF (%) ([3]; storage 25° C./97% RH, Week 4): 7.9% | KF (%) ([3]; storage 40° C./0% RH, Week 1): 7.5% | XRPD ([3]; storage 40° C./0% RH, Week 1): Pattern 4 | XRPD ([3]; storage 40° C./0% RH, Week 1, listed as crystalline dihydrate form (having crystal sizes in the range of about 10-50 μm)): Pattern 4 | KF (%) ([3]; storage 40° C./0% RH, Week 2): 7.4% | XRPD ([3]; storage 40° C./0% RH, Week 2): Pattern 4 | XRPD ([3]; storage 40° C./0% RH, Week 2, listed as crystalline dihydrate form (having crystal sizes in the range of about 10-50 μm)): Pattern 4 | KF (%) ([3]; storage 40° C./0% RH, Week 3): 7.0% | XRPD ([3]; storage 40° C./0% RH, Week 3, listed as crystalline dihydrate form (having crystal sizes in the range of about 10-50 μm)): Pattern 4 and peaks at 9.9° and 10.6° | KF (%) ([3]; storage 40° C./0% RH, Week 4): 3.4% | XRPD ([3]; storage 40° C./0% RH, Week 4, listed as crystalline dihydrate form (having crystal sizes in the range of about 10-50 μm)): Pattern 4 and peaks at 9.9° and 10.6° | KF (%) ([3]; storage 40° C./75% RH, Week 1): 7.5% | KF (%) ([3]; storage 40° C./75% RH, Week 2): 7.9% | KF (%) ([3]; storage 40° C./75% RH, Week 3): 8.0% | KF (%) ([3]; storage 40° C./75% RH, Week 4): 7.9%

Cc1nc(-c2cnc(NC(C)C)n(C)c2=O)ccc1Oc1ccnc(-c2cnn(C)c2)c1.O.O [non-milled batch of crystalline dihydrate form of the compou]
particle size d10 of seeds [1]: about 5 μm | particle size d50 of seeds [1]: about 15 μm | particle size d90 of seeds [1]: about 36 μm

Cc1nc(-c2cnc(NC(C)C)n(C)c2=O)ccc1Oc1ccnc(-c2cnn(C)c2)c1.O.O [milled seeds]
particle size d10 of seeds [1]: about 3 μm | particle size d50 of seeds [1]: about 6 μm | particle size d90 of seeds [1]: about 12 μm

Cc1nc(-c2cnc(NC(C)C)n(C)c2=O)ccc1Oc1ccnc(-c2cnn(C)c2)c1
KF (%) ([3]; storage 25° C./0% RH, Week 1): 0.1% | XRPD ([3]; storage 25° C./0% RH, Week 1): Anhydrous | KF (%) ([3]; storage 25° C./0% RH, Week 2): 0.1% | XRPD ([3]; storage 25° C./0% RH, Week 2): Anhydrous | KF (%) ([3]; storage 25° C./0% RH, Week 3): 0.0% | XRPD ([3]; storage 25° C./0% RH, Week 3): Anhydrous | KF (%) ([3]; storage 25° C./0% RH, Week 4): 0.2% | XRPD ([3]; storage 25° C./0% RH, Week 4): Anhydrous | KF (%) ([3]; storage 25° C./97% RH, Week 1): 0.3% | XRPD ([3]; storage 25° C./97% RH, Week 1): Anhydrous | KF (%) ([3]; storage 25° C./97% RH, Week 2): 0.3% | XRPD ([3]; storage 25° C./97% RH, Week 2): Anhydrous | KF (%) ([3]; storage 25° C./97% RH, Week 3): 0.2% | XRPD ([3]; storage 25° C./97% RH, Week 3): Anhydrous | KF (%) ([3]; storage 25° C./97% RH, Week 4): 0.4% | XRPD ([3]; storage 25° C./97% RH, Week 4): Anhydrous | KF (%) ([3]; storage 40° C./0% RH, Week 1): 0.1% | XRPD ([3]; storage 40° C./0% RH, Week 1): Anhydrous | KF (%) ([3]; storage 40° C./0% RH, Week 2): 0.0% | XRPD ([3]; storage 40° C./0% RH, Week 2): Anhydrous | KF (%) ([3]; storage 40° C./0% RH, Week 3): 0.0% | XRPD ([3]; storage 40° C./0% RH, Week 3): Anhydrous | KF (%) ([3]; storage 40° C./0% RH, Week 4): 0.2% | XRPD ([3]; storage 40° C./0% RH, Week 4): Anhydrous | KF (%) ([3]; storage 40° C./75% RH, Week 1): 0.3% | XRPD ([3]; storage 40° C./75% RH, Week 1): Anhydrous | KF (%) ([3]; storage 40° C./75% RH, Week 2): 0.2% | XRPD ([3]; storage 40° C./75% RH, Week 2): Anhydrous | KF (%) ([3]; storage 40° C./75% RH, Week 3): 0.1% | XRPD ([3]; storage 40° C./75% RH, Week 3): Anhydrous | KF (%) ([3]; storage 40° C./75% RH, Week 4): 0.3% | XRPD ([3]; storage 40° C./75% RH, Week 4): Anhydrous
